What was measured:
[1] = molecular target: Vascular endothelial growth factor receptor 2 (Homo sapiens, UniProt P35968); test: Inhibition of VEGFR2 (unknown origin) after 1 hr by ADP-Glo reagent based luminescent assay
[2] = test system: EA.hy 926; test: Anti-angiogenic activity against human EAhy926 after 24 hrs by CCK-8 assay; assay type: functional, cell-based; settings: EA.hy 926, 24 h
[3] = test system: PANC-1; test: Antiproliferative activity against human PANC1 cells
[4] = test system: HeLa; test: Antiproliferative activity against human HeLa cells
[5] = test system: A-431; test: Antiproliferative activity against human A431 cells
[6] = test system: A549; test: Antiproliferative activity against human A549 cells
[7] = test system: MCF7; test: Antiproliferative activity against human MCF7 cells
[8] = test system: SMMC-7721; test: Antiproliferative activity against human SMMC7721 cells
[9] = test system: LoVo; test: Antiproliferative activity against human LoVo cells
[10] = molecular target: T1, Ephrin type-B receptor 4 (Homo sapiens, UniProt P54760); test: Inhibition of EPHB4 (unknown origin) after 4 hrs by ADP-Glo reagent based luminescent assay
T1 sequence (P54760 whole entry): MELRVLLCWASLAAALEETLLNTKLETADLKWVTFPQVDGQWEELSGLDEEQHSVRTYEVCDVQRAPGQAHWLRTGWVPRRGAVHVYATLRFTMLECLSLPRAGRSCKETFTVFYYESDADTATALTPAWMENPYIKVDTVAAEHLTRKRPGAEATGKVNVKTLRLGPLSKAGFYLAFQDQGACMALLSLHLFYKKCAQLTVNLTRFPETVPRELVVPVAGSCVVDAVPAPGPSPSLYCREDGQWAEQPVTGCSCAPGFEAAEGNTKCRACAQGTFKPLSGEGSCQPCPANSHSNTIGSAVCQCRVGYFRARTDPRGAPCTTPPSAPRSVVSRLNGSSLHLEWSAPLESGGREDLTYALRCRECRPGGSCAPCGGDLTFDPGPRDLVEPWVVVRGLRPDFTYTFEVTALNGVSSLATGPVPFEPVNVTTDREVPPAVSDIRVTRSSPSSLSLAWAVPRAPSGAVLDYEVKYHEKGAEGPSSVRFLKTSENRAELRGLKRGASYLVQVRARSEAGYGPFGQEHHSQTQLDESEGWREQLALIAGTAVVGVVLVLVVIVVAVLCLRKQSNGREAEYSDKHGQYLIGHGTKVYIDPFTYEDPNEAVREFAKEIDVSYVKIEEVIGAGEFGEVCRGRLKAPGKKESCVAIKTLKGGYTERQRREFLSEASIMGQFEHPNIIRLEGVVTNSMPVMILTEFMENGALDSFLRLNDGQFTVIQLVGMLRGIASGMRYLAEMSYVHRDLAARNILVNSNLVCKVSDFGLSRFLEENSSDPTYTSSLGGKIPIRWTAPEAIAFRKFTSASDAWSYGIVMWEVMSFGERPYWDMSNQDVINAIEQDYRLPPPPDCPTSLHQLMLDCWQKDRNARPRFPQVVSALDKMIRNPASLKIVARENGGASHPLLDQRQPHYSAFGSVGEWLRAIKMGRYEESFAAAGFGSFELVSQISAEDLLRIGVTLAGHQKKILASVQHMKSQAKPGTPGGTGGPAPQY

[11] = molecular target: Angiopoietin-1 receptor (Homo sapiens, UniProt Q02763); test: Inhibition of TIE2 (unknown origin) after 4 hrs by ADP-Glo reagent based luminescent assay
Sequence of Angiopoietin-1 receptor (Q02763 whole entry): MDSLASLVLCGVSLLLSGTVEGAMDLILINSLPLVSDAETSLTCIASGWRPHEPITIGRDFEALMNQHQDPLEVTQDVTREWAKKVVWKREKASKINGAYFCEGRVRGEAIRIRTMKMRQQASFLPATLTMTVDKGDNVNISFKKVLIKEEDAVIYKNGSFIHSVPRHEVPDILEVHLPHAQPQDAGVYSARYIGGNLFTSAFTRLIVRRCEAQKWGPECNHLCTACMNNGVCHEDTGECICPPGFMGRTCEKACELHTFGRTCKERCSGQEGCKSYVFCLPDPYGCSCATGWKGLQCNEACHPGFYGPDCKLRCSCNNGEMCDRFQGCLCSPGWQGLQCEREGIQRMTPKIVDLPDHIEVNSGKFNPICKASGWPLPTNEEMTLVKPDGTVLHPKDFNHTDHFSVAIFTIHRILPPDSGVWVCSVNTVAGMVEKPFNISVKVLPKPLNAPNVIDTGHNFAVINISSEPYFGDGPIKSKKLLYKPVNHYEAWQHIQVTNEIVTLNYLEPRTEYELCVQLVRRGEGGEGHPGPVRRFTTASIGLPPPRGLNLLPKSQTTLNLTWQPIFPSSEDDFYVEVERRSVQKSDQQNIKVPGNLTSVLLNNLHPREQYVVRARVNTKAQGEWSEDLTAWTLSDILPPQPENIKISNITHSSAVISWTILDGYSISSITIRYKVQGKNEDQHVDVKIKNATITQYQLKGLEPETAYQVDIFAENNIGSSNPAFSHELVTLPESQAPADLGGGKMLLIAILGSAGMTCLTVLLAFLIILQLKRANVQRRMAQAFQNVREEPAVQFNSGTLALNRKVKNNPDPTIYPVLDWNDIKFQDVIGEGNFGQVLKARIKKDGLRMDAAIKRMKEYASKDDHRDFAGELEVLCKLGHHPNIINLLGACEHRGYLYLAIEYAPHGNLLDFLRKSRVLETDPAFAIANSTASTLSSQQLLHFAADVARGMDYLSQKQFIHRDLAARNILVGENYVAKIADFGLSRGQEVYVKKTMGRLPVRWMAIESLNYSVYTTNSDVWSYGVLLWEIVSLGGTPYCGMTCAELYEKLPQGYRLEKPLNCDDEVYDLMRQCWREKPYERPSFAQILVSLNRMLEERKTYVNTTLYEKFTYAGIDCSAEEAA

Sequence of Vascular endothelial growth factor receptor 2 (P35968 whole entry): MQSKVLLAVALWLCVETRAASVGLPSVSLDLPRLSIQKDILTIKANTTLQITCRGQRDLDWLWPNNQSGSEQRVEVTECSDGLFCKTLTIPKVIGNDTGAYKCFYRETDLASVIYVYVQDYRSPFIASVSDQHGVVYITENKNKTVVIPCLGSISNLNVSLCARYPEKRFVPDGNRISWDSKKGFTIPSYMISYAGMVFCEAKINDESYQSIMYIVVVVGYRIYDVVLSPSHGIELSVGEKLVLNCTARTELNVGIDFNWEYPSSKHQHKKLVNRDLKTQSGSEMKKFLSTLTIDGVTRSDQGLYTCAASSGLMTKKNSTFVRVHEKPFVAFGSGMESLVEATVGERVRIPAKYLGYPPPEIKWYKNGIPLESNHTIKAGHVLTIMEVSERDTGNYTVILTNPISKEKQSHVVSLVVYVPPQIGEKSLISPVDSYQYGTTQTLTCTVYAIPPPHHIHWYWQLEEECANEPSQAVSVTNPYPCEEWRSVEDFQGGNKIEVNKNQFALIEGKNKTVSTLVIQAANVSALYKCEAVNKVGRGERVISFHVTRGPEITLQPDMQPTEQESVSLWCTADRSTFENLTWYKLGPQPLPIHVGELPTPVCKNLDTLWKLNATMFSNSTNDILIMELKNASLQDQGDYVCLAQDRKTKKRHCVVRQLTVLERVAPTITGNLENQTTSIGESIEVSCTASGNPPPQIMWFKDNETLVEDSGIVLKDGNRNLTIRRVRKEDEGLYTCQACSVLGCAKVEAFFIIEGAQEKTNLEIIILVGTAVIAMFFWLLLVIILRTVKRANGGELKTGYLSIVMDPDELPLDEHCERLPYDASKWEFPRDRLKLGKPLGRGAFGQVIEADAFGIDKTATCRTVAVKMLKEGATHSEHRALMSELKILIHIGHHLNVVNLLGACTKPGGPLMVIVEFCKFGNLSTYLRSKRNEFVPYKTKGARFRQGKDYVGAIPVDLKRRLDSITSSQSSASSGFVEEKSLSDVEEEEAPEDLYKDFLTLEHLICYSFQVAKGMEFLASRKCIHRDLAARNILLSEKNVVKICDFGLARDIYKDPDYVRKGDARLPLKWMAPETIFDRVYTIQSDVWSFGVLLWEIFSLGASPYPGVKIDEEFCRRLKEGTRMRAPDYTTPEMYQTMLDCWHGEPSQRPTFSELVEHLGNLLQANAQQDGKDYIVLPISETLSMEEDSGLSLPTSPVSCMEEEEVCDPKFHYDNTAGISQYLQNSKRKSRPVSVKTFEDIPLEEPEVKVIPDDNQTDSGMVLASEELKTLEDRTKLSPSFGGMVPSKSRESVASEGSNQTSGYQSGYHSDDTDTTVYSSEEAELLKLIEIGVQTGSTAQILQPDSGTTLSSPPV

SMILES	IC50 [10] [µM]	IC50 [2] [µM]	also measured
COc1ccc(-c2ccc(Cn3cc(-c4ccccc4F)nn3)cc2)cn1	–	708	IC50 [1]: > 1 µM
COc1ccc(-c2ccc(Cn3cc(-c4cccc(N)c4)nn3)cc2)cn1	–	14.5	IC50 [3]: 0.49 µM; IC50 [4]: 0.29 µM; IC50 [5]: 0.07 µM; IC50 [6]: 0.18 µM; IC50 [7]: 0.35 µM; IC50 [8]: 0.24 µM; IC50 [9]: 0.1 µM
FC(F)(F)c1cccc(-c2cn(Cc3ccc(-c4cccnc4)cc3)nn2)c1	> 1	137	IC50 [1]: > 1 µM
Clc1cccc(-c2cn(Cc3ccc(-c4cccnc4)cc3)nn2)c1	–	431	–
FC(F)(F)c1ccc(-c2cn(Cc3ccc(-c4cccnc4)cc3)nn2)cc1	> 1	170	IC50 [11]: > 1 µM
COc1ccc(-c2ccc(Cn3cc(-c4ccc(C)cc4)nn3)cc2)cn1	–	678	–
COc1ccc(-c2ccc(Cn3cc(-c4cccc(Cl)c4)nn3)cc2)cn1	–	440	–
Fc1ccccc1-c1cn(Cc2ccc(-c3cccnc3)cc2)nn1	–	9.28	–
Nc1cccc(-c2cn(Cc3ccc(-c4cccnc4)cc3)nn2)c1	–	24.3	–
Cc1ccc(-c2cn(Cc3ccc(-c4cccnc4)cc3)nn2)cc1	–	6.49	IC50 [11]: > 1 µM
c1ccc(-c2cn(Cc3ccc(-c4cccnc4)cc3)nn2)cc1	–	12.1	–
COc1ccc(-c2ccc(Cn3cc(-c4cccc(C)c4)nn3)cc2)cn1	–	43.9	IC50 [11]: > 1 µM
CNC(=O)c1cc(Oc2ccc(NC(=O)Nc3ccc(Cl)c(C(F)(F)F)c3)cc2)ccn1 [SORAFENIB]	–	11.7	IC50 [3]: 0.15 µM; IC50 [4]: 0.27 µM; IC50 [5]: 0.12 µM; IC50 [6]: 0.08 µM; IC50 [7]: 0.09 µM; IC50 [8]: 0.3 µM; IC50 [9]: 0.25 µM

Continued, in another order:

IC50 [10] [µM]	SMILES	IC50 [2] [µM]	also measured
> 1	COc1ccc(-c2ccc(Cn3cc(-c4ccccc4)nn3)cc2)cn1	110	IC50 [11]: > 1 µM
> 1	COc1ccc(-c2ccc(Cn3cc(-c4ccc(C(F)(F)F)cc4)nn3)cc2)cn1	122	–
> 1	Cc1cccc(-c2cn(Cc3ccc(-c4cccnc4)cc3)nn2)c1	134	–

Source: ChEMBL document CHEMBL4330058, “Discovery of novel anti-angiogenesis agents. Part 10: Multi-target inhibitors of VEGFR-2, Tie-2 and EphB4 incorporated with 1,2,3-triazol” (Eur J Med Chem, 2019)
